In doi:10.1101/2025.11.20.689572v1 (biorxiv, 2025) one finds Emax data, which are given here for two molecules.

Read-outs that look alike come from different tables or passages of the source.

What all share (experiment): cell-based
What all share (parameters): PRESTO-Tango beta-arrestin2 recruitment, luciferase luminescence, concentration-response
Holding throughout (details): HTLA, Assay=Tango, agonist mode, % of control agonist
Background: Recruitment of arrestin is a read-out of receptor activation apart from second messengers.

Test [1] concerns the target T1, CHRM2 (Homo sapiens, UniProt P08172).
T1 sequence (P08172 1-466): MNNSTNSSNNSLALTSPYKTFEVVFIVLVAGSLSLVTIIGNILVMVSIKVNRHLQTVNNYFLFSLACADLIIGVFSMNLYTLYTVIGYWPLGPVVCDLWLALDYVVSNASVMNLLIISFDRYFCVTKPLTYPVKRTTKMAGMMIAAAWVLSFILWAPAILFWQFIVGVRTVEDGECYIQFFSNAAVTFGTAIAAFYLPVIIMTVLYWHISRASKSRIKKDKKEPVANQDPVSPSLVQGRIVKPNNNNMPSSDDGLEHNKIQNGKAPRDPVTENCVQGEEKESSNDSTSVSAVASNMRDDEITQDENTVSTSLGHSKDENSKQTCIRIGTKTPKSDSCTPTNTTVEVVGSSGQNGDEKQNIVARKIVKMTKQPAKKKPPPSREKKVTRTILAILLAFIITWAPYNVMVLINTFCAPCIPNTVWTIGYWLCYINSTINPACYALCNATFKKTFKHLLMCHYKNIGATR
The protocol: (§1) Off-target agonism across the human GPCRome was profiled using PRESTO-Tango, following established protocols with minor adaptations [10]–[12]. […] After ~6 h recovery, cells were transfected with 20 ng plasmid DNA per well and incubated overnight. The next day, 10 µL of test compound (prepared in DMEM + 1% dFBS) was added, and plates were incubated overnight. Media and compounds were removed, and 20 µL per well of Bright-Glo luciferase reagent diluted in assay buffer (Hank’s Balanced Salt Solution (HBSS), 20 mM HEPES, pH 7.4) was added. After 20 min at room temperature (dark), luminescence was recorded. Each plate included the dopamine D2 receptor (DRD2) stimulated with 100 nM quinpirole as a positive control. For the GPCRome screen, each receptor was tested in quadruplicate at 0 and 10 µM compound (final). Responses were expressed as fold change relative to the basal (0 µM) condition. Follow-up concentration–response assays were performed under identical conditions except that serial dilutions of compounds (maximum ~30 µM, final) were added to generate full concentration–response curves.

Test [2] has as its target CHRM3 (Homo sapiens, UniProt P20309). As to the method: as §1
Test [3] concerns the target T2, CHRM4 (Homo sapiens, UniProt P08173).
T2 sequence (P08173 1-479): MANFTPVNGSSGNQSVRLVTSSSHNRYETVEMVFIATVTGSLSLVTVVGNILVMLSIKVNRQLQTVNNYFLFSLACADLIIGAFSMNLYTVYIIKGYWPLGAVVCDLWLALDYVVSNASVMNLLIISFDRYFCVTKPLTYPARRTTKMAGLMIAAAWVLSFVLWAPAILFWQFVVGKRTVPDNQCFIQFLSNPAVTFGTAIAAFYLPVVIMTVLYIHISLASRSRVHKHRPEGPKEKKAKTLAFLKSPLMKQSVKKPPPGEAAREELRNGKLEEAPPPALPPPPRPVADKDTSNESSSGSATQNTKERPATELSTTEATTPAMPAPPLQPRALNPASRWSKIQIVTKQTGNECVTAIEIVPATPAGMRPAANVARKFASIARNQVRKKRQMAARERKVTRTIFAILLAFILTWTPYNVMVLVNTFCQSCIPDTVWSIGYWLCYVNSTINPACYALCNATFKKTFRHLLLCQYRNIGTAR
The protocol:
as §1

In test [4] the target is T3, CHRM5 (Homo sapiens, UniProt P08912).
T3 sequence (P08912 1-532): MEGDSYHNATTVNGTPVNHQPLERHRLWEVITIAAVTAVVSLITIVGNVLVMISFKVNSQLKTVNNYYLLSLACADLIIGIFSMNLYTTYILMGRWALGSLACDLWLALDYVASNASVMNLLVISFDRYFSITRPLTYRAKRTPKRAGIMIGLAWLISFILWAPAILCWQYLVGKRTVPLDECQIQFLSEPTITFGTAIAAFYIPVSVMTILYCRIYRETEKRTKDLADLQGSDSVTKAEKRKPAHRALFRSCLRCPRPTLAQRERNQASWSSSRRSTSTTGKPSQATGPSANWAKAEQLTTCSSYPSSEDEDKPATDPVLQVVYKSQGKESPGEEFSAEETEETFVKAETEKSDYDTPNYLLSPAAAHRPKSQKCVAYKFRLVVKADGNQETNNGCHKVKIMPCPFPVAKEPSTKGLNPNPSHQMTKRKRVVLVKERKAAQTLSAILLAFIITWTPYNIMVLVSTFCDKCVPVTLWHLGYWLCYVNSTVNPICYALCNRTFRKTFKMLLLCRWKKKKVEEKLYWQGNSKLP
As to the method:
as §1

Test [5] has as its target HRH3 (Homo sapiens, UniProt Q9Y5N1). The protocol: as §1
Test [6] concerns the target HRH4 (Homo sapiens, UniProt Q9H3N8). As to the method: as §1
The target of test [7] is HTR1D (Homo sapiens, UniProt P28221). The protocol:
as §1

The mark [8] stands for this setting: read-out: N-Desmethyl Xanomeline.

Sequence of HRH3 (Q9Y5N1 whole entry): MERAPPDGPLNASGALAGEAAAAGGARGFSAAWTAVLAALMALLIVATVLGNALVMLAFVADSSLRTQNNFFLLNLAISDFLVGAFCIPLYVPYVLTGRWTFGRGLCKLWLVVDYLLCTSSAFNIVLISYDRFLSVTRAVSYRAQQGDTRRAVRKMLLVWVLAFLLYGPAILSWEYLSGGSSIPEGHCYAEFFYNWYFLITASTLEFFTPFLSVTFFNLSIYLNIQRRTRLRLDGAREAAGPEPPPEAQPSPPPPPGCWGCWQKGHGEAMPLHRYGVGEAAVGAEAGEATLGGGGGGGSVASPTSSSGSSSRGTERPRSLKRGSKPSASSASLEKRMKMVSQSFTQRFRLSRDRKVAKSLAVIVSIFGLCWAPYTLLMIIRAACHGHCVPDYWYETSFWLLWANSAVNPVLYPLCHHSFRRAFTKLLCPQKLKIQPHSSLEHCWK
Sequence of HRH4 (Q9H3N8 whole entry): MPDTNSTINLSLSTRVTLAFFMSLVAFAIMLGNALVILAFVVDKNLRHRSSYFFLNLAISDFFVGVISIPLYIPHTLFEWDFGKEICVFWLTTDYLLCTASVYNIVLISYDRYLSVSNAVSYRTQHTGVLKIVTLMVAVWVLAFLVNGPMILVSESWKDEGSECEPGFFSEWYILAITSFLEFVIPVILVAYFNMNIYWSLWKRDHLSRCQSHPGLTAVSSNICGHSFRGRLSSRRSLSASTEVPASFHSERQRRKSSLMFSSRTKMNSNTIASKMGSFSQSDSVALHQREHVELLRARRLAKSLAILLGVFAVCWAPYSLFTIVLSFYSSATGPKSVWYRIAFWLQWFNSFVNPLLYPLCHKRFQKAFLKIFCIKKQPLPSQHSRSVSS
Sequence of CHRM3 (P20309 whole entry): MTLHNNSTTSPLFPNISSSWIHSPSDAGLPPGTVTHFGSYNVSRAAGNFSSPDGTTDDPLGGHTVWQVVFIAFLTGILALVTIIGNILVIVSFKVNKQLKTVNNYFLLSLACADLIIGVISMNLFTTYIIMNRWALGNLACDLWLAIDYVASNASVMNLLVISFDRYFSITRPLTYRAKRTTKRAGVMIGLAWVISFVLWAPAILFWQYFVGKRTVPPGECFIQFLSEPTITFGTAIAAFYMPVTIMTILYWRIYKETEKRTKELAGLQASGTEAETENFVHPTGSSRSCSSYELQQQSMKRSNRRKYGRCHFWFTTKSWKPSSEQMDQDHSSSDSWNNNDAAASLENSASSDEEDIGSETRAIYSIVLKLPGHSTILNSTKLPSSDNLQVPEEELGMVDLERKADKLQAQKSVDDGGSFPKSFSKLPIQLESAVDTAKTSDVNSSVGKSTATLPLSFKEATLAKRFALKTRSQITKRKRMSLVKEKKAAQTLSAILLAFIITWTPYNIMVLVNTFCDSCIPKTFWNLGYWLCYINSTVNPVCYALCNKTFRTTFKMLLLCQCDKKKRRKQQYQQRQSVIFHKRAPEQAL
Sequence of HTR1D (P28221 whole entry): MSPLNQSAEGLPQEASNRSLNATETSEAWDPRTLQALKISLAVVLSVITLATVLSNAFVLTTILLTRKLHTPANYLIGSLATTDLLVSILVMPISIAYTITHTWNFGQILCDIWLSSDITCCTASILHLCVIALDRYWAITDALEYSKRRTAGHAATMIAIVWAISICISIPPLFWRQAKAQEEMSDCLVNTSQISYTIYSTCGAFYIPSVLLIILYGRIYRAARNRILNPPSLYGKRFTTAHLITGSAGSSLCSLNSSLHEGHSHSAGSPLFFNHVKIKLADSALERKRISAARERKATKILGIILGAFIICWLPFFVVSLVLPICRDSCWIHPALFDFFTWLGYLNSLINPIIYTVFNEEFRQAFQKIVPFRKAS

As for `CCCCCCOc1nsnc1C1=CCCNC1` [N-desmethylxanomeline], the Emax stood at 42.6% in test [1] (setting [8]); 32.1% in test [2] (setting [8]); 67.5% in test [3] (setting [8]); 48.2% in test [4] (setting [8]); 16.8% in test [5] (setting [8]); 10.4% in test [6] (setting [8]). The Emax in test [7] (setting [8]) is 51.2%.
`CCCCCCOc1nsnc1C1=CCCN(C)C1` [Xanomeline]: the Emax in test [1] (read-out: Xanomeline) came out at 45.5%; in test [2] (read-out: Xanomeline), 42.8%; in test [3] (read-out: Xanomeline), 72.5%; in test [4] (read-out: Xanomeline), 70.1%; in test [5] (read-out: Xanomeline) it was 2.89%; in test [6] (read-out: Xanomeline), 37.3%. In addition, the Emax in test [7] (read-out: Xanomeline) is 73.3%.
